Laboratory results as given in patent US11230541B2, “Heterocyclic compound” (Takeda Pharmaceutical Company Limited, priority 2017, dated 2022).

target: T1, NMDA receptor composed of four subunits including 2 sets of heterodimers of NR1 and NR2B (Homo sapiens, UniProt Q13224); assay: NR2B Ca2+ influx assay (FLIPR, Fluo-4) in HEK293 cells expressing human GRIN1 and GRIN2B; type: cell-based; conditions: HEK293, 10 μM final compound concentration, glutamic acid/glycine-induced Ca2+ influx, read-out: inhibitory rate (10 μM compound concentration)
T1 construct: host or cells: HEK293 (tetracycline-induced expression)
Excerpt: To confirm the “antagonistic action on an NMDA receptor containing the NR2B subunit” of the compound of the present invention, human embryonic kidney cell expressing the “NMDA receptor composed of four subunits including 2 sets of heterodimers of NR1 and NR2B”, specifically HEK293 cell expressing human glutamate ionotropic receptor NMDA type subunit 1 (GRIN1) and human glutamate ionotropic receptor NMDA type subunit 2B (GRIN2B), was used and the activation suppressive effect on the receptors was measured.
As an index of the NMDA receptor activation, intracellular calcium ion (Ca^2+) influx caused by the binding of glycine and glutamic acid with NR1 and NR2B, respectively, was used. HEK293 cells were purchased from ChanTest. The cells were cultured in a DMEM/F-12 (COSMO BIO, 10-092-CM) medium added with 10% FBS′(fetal bovine serum, AusGene), 100 units/mL penicillin, 100 μg/mL streptomycin, 500 μg/mL neomycin, 100 μg/mL Zeocin, 5 μg/mL Blasticidin at 37° C., 5% CO2. The cells were detached from flask with trypsin the day before the assay, suspended in a seeding medium (DMEM (Invitrogen, 31053) added with 10% FBS, 100 units/mL penicillin, 100 μg/mL streptomycin) at 8×10^5 cells/mL, seeded by 25 μL per well in a 384-well plate (Falcon, 356663) at 20000 cells/well, and cultured overnight in an incubator. On the day of the assay, tetracycline (Wako Pure Chemical Industries, Ltd., 209-16561) was diluted with the seeding medium at 2 μg/mL, added at […] to the plate seeded with the cells, and cultured for 2 hr in an incubator. Thereafter, the medium was removed, and the cells were washed with 50 μL/well assay buffer (137 mM NaCl, 4 mM KCl, 1.8 mM CaCl2, 10 mM HEPES (pH 7.2), 10 mM Glucose, 0.1% BSA). Then, a loading buffer (assay buffer added with 2.5 uM Fluo-4AM, 2 mM Amaranth, 1 mM Tartrazine) was added at 25 μL/well, and loading was performed in the incubator for 30 min, and at room temperature for 15 min. A solution (25 μL) of the Example compound diluted with the above-mentioned assay buffer at 30 μM (final concentration 10 μM) was added, and the cells were stood for 15 min at room temperature. Using FLIPR (Molecular Devices), 25 μL of an assay buffer containing 30 μM glutamic acid, 30 μM glycine was added, and the fluorescence signal was measured every 3 seconds for 5 min. The inhibitory activity was calculated as a relative activity value (inhibitory rate) that inhibits 100% of the cumulative value of the fluorescence value of a well added with a buffer free of glutamic acid, glycine, relative to the cumulative value of the fluorescence value of each well.

T1 sequence (Q13224 27-1484, other chains not shown): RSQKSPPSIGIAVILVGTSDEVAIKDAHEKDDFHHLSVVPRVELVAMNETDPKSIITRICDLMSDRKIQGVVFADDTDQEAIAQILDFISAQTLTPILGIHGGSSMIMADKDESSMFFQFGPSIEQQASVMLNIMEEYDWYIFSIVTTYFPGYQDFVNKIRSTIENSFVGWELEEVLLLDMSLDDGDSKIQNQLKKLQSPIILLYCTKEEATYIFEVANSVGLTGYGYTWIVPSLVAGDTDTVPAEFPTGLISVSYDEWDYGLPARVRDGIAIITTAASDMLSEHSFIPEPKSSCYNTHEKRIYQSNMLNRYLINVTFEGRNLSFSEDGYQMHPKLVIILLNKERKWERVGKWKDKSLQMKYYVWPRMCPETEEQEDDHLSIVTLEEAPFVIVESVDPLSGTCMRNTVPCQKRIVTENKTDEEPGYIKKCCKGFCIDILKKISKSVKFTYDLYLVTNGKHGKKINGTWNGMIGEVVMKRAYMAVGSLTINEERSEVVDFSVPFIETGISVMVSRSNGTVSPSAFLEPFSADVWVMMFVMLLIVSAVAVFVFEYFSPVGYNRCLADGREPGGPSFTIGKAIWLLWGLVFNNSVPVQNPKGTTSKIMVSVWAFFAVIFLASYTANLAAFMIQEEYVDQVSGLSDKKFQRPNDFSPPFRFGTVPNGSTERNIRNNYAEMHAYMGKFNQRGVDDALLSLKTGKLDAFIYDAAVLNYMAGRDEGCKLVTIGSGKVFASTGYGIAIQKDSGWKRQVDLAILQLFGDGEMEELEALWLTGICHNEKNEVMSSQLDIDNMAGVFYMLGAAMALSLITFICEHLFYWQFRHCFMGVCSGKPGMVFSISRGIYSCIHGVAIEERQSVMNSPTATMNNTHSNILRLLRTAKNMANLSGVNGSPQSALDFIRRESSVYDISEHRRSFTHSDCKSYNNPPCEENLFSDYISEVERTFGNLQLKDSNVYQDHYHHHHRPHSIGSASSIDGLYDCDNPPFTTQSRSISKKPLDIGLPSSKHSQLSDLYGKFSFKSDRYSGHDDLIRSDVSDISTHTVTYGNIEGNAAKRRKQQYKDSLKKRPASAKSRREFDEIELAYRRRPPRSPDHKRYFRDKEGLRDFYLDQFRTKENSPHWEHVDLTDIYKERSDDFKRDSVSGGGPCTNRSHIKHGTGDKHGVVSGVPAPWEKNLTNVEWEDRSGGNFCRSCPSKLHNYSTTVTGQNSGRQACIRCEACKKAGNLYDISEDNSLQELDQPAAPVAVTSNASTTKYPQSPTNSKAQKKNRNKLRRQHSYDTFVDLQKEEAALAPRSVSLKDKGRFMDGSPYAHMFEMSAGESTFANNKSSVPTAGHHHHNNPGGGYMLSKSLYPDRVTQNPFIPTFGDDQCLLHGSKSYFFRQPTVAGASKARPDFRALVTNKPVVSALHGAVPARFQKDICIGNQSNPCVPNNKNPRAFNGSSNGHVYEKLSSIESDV

Structure (SMILES)	inhibition at 10 µM
Cc1ccc2nn(C)cc2c1CNC(=O)c1ccc(OC(F)(F)F)cc1 [Example 1, N-((2,5-dimethyl-2H-indazol-4-yl)methyl)-4-(trifluoromethoxy)benzamide]	82%
Cc1ccc2[nH]cnc2c1CNC(=O)c1ccc(OC(F)(F)F)cc1 [Example 3, N-((5-methyl-1H-benzimidazol-4-yl)methyl)-4-(trifluoromethoxy)benzamide]	97%
O=C(NCc1c(I)ccc2[nH]ncc12)c1ccc(OC(F)(F)F)cc1 [Example 4, N-((5-iodo-1H-indazol-4-yl)methyl)-4-(trifluoromethoxy)benzamide]	87%
O=C(NCc1cccc2[nH]ncc12)c1ccc(OC(F)(F)F)cc1 [Example 7, N-(1H-indazol-4-ylmethyl)-4-(trifluoromethoxy)benzamide]	93%
COc1ccc2ncn(C)c2c1CNC(=O)c1cc(F)c(OC)c(F)c1 [Example 8, 3,5-Difluoro-4-methoxy-N-((6-methoxy-1-methyl-1H-benzimidazol-7-yl)methyl)benzamide]	92%
COc1ccc2ncn(C)c2c1CNC(=O)c1cnc(OC)c(F)c1 [Example 10, 5-fluoro-6-methoxy-N-((6-methoxy-1-methyl-1H-benzimidazol-7-yl)methyl)nicotinamide]	92%
COc1ccc2ncn(C)c2c1CNC(=O)c1ccc(OC(F)(F)F)cc1 [Example 12, N-((6-methoxy-1-methyl-1H-benzimidazol-7-yl)methyl)-4-(trifluoromethoxy)benzamide]	94%
COc1ccc2ncn(C)c2c1CNC(=O)c1ccc(C(F)(F)F)c(F)c1 [Example 13, 3-fluoro-N-((6-methoxy-1-methyl-1H-benzimidazol-7-yl)methyl)-4-(trifluoromethyl)benzamide]	94%
COc1ccc2ncn(C)c2c1CNC(=O)c1cc(F)c(Cl)c(F)c1 [Example 15, 4-chloro-3,5-difluoro-N-((6-methoxy-1-methyl-1H-benzimidazol-7-yl)methyl)benzamide]	95%
COc1c(F)cc(C(=O)NCc2c(C3CC3)ccc3[nH]ncc23)cc1F [Example 17, N-((5-cyclopropyl-1H-indazol-4-yl)methyl)-3,5-difluoro-4-methoxybenzamide]	93%
COc1ncc(C(=O)NCc2c(C)ccc3ncn(C)c23)cc1F [Example 19, N-((1,6-dimethyl-1H-benzimidazol-7-yl)-methyl)-5-fluoro-6-methoxynicotinamide]	83%
COc1ncc(C(=O)NCc2c(C3CC3)ccc3ncn(C)c23)cc1F [Example 20, N-((6-cyclopropyl-1-methyl-1H-benzimidazol-7-yl)methyl)-5-fluoro-6-methoxynicotinamide]	90%
COc1c(F)cc(C(=O)NCc2c(C3CC3)ccc3ncn(C)c23)cc1F [Example 21]	91%
CCc1ccc2ncn(C)c2c1CNC(=O)c1cnc(OC)c(F)c1 [Example 22, N-((6-ethyl-1-methyl-1H-benzimidazol-7-yl)-methyl)-5-fluoro-6-methoxynicotinamide]	90%
CCc1ccc2ncn(C)c2c1CNC(=O)c1cc(F)c(OC)c(F)c1 [Example 23, N-((6-ethyl-1-methyl-1H-benzimidazol-7-yl)-methyl)-3,5-difluoro-4-methoxybenzamide]	93%
COc1c(F)cc(C(=O)NCc2c(C)ccc3ncn(C)c23)cc1F [Example 25, N-((1,6-dimethyl-1H-benzimidazol-7-yl)-methyl)-3,5-difluoro-4-methoxybenzamide]	92%
Cc1ccc2ncn(C)c2c1CNC(=O)c1cc(F)c(C(F)(F)F)c(F)c1 [Example 26, N-((1,6-dimethyl-1H-benzimidazol-7-yl)-methyl)-3,5-difluoro-4-(trifluoromethyl)benzamide]	66%
COc1ccc2ncn(C)c2c1CNC(=O)c1csc(Cl)c1 [Example 28, 5-chloro-N-((6-methoxy-1-methyl-1H-benzimidazol-7-yl)nethyl)thiophene-3-carboxamide]	90%
Cc1ccc2ncn(C)c2c1CNC(=O)c1ccc(OC(F)(F)F)c(F)c1 [Example 30, N-((1,6-dimethyl-1H-benzimidazol-7-yl)-methyl)-3-fluoro-4-(trifluoromethoxy)-benzamide]	90%
Cc1ccc2ncn(C)c2c1CNC(=O)c1ccc(OC(F)F)c(Cl)c1 [Example 31, 3-chloro-4-(difluoromethoxy)-N-((1,6-dimethyl-1H-benzimidazol-7-yl)methyl)benzamide]	91%
COc1ccc2ncn(C)c2c1CNC(=O)Cc1cccs1 [Example 33, N-((6-methoxy-1-methyl-1H-benzimidazol-7-yl)methyl)-2-(2-thienyl)acetamide]	86%
COc1ccc(C(=O)NCc2c(OC)ccc3ncn(C)c23)cc1Cl [Example 34, 3-chloro-4-methoxy-N-((6-methoxy-1-methyl-1H-benzimidazol-7-yl)methyl)benzamide]	89%
COc1ccc2ncn(C)c2c1CNC(=O)c1cc(C)c(OC)c(C)c1 [Example 35, 4-methoxy-N-((6-methoxyl-methyl-1H-benzimidazol-7-yl)methyl)-3,5-dimethylbenzamide]	77%

Results, then the compound that gave them:

inhibition at 10 µM	Structure (SMILES)
92%	Cc1ccc2[nH]ncc2c1CNC(=O)c1ccc(OC(F)(F)F)cc1 [Example 2, N-((5-methyl-1H-indazol-4-yl)methyl)-4-(trifluoromethoxy)benzamide]
85%	O=C(NCc1c(C(F)(F)F)ccc2[nH]ncc12)c1ccc(OC(F)(F)F)cc1 [Example 5, 4-(trifluoromethoxy)-N-((5-(trifluoromethyl)-1H-indazol-4-yl)methyl)benzamide]
91%	COc1ccc2[nH]ncc2c1CNC(=O)c1ccc(OC(F)(F)F)cc1 [Example 6, N-((5-methoxy-1H-indazol-4-yl)methyl)-4-(trifluoromethoxy)benzamide]
92%	COc1ccc2ncn(C)c2c1CNC(=O)c1cc(F)c(C)c(F)c1 [Example 9, 3,5-difluoro-N-((6-methoxy-1-methyl-1H-benzimidazol-7-yl)methyl)-4-methylbenzamide]
92%	COc1ccc(C(=O)NCc2c(OC)ccc3ncn(C)c23)cc1F [Example 11, 3-fluoro-4-methoxy-N-((6-methoxy-1-methyl-1H-benzimidazol-7-yl)methyl)benzamide]
92%	COc1ccc2ncn(C)c2c1CNC(=O)c1ccc(C)c(F)c1 [Example 14, 3-fluoro-N-((6-methoxy-1-methyl-1H-benzimidazol-7-yl)methyl)-4-methylbenzamide]
94%	CCc1ccc2[nH]ncc2c1CNC(=O)c1cc(F)c(OC)c(F)c1 [Example 16, N-((5-ethyl-1H-indazol-4-yl)methyl)-3,5-difluoro-4-methoxybenzamide]
87%	COc1ccc2ncn(C)c2c1CNC(=O)c1cc(F)c(F)c(Cl)c1 [Example 18, 3-chloro-4,5-difluoro-N-((6-methoxy-1-methyl-1H-benzimidazol-7-yl)methyl)benzamide]
90%	COc1ccc2ncn(C)c2c1CNC(=O)c1cc(F)c(C(F)(F)F)c(F)c1 [Example 24, 3,5-difluoro-N-((6-methoxy-1-methyl-1H-benzimidazol-7-yl)-methyl)-4-(trifluoro-methyl)benzaraide]
82%	COc1ccc2ncn(C)c2c1CNC(=O)c1csc(C)c1 [Example 27, N-((6-methoxy-1-methyl-1H-benzimidazol-7-yl)-methyl)-5-methylthiophene-3-carboxamide]
91%	CCc1cc(C(=O)NCc2c(OC)ccc3ncn(C)c23)cs1 [Example 29]
77%	COc1ccc2ncn(C)c2c1CNC(=O)c1ccc(C)s1 [Example 32, N-((6-methoxy-1-methyl-1H-benzimidazol-7-yl)methyl)-5-methylthiophene-2-carboxamide]
89%	COc1ccc2ncn(C)c2c1CNC(=O)c1ccc(Cl)s1 [Example 36, 5-chloro-N-((6-methoxy-1-methyl-1H-benzimidazol-7-yl)methyl)-thiophene-2-carboxamide]
